Experimental data reported in PMC5467912, “Asymmetric regulation of quorum-sensing receptors drives autoinducer-specific gene expression programs in Vibrio cholerae” (PLoS Genetics, 2017).
Where “and” joins values, the source holds several entries; their conditions need not be identical. Identical values can stand only once.

Columns and labels:
CqsS = biological target: T1, CqsS (Vibrio cholerae serotype O1, UniProt Q9KM66); assay: cell-based; conditions: for Light production: strain WN1102; for RLU: Strain WN1102
T1 construct: endogenous in cells; host or cells: V. cholerae WN1102 (ΔcqsA ΔluxQ/pBB1), derived from C6706str2
T1 sequence (Q9KM66 whole entry, looked up): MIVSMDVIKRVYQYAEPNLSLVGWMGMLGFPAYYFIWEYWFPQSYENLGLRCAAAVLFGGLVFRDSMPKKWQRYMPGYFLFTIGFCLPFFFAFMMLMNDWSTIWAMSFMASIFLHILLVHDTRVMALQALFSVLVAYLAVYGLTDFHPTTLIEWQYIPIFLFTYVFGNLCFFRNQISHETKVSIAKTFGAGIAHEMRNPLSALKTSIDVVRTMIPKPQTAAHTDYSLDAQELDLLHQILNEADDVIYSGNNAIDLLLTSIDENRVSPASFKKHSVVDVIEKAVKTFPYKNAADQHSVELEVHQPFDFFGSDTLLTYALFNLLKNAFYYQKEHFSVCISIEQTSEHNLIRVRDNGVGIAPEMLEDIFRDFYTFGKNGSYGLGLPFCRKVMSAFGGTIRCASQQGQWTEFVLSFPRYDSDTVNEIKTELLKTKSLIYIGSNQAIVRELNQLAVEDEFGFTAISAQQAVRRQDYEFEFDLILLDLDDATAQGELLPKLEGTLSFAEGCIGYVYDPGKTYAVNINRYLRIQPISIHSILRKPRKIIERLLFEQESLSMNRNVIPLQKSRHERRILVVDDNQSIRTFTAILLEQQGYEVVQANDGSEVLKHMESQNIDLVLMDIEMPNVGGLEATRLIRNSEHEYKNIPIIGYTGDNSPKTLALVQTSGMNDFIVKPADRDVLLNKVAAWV

CqsS D618N = tested on: T2, CqsS D618N; assay: CqsS D618N autophosphorylation in inverted membrane vesicles, 32P (Fig 7A); format: biochemical, Vibrio cholerae
T2 construct: made in house; host or cells: E. coli C43 (DE3), pET21b; used as inverted membrane vesicles

CqsS F162A = assay: CqsS-dependent repression of qrr4-gfp, CqsS F162A (Fig 7C); format: cell-based, Vibrio cholerae; conditions: Treatment 1uM; CqsS mutant F162A
CqsS F166L = assay: CqsS-dependent repression of qrr4-gfp, CqsS F166L (Fig 7C); format: cell-based, Vibrio cholerae

With `CCCCCCCCCC(=O)[C@@H](O)CC` [CAI-1, (S)-3-hydroxytridecan-4-one] the Light production (CqsS; Agonist 0.0119209 nM) was 12889 RLU and 8888.9 RLU and 6804.1 RLU, the Light production (CqsS; Agonist 0.0476837 nM) was 14371 RLU and 11556 RLU and 14048 RLU and the Light production (CqsS; Agonist 0.190735 nM) was 19162 RLU and 15751 RLU and 14725 RLU. For the same compound, the Light production (CqsS; Agonist 0.762939 nM) was 27416 RLU and 24171 RLU and 21376 RLU, the Light production (CqsS; Agonist 3.05176 nM) was 42278 RLU and 41455 RLU and 42909 RLU and the Light production (CqsS; Agonist 12.207 nM) was 141302 RLU and 122637 RLU and 126432 RLU. For the same compound, the Light production (CqsS; Agonist 48.8281 nM) was 2056727 RLU and 1989392 RLU and 2067742 RLU, the Light production (CqsS; Agonist 195.312 nM) was 21777960 RLU and 20597350 RLU and 20387370 RLU and the Light production (CqsS; Agonist 781.25 nM) was 68306990 RLU and 63315740 RLU and 60445960 RLU. The Light production (CqsS; Agonist 3125 nM) was 107684000 RLU and 96526460 RLU and 89440220 RLU, the Light production (CqsS; Agonist 12500 nM) was 110460000 RLU and 105858400 RLU and 100769600 RLU and the Light production (CqsS; Agonist 50000 nM) was 108923600 RLU and 92244980 RLU and 92565550 RLU. The RLU (CqsS; agonist 0.0119209 nM) was 6.03E+03 RLU and 5.88E+03 RLU and 4.06E+03 RLU, the RLU (CqsS; agonist 0.190735 nM) was 1.26E+04 RLU and 1.57E+04 RLU and 1.42E+04 RLU and the RLU (CqsS; agonist 0.762939 nM) was 2.01E+04 RLU and 2.32E+04 RLU and 2.34E+04 RLU. For the same compound, the RLU (CqsS; agonist 3.05176 nM) was 2.95E+04 RLU and 3.11E+04 RLU and 2.71E+04 RLU, the RLU (CqsS; agonist 12.207 nM) was 3.67E+04 RLU and 5.35E+04 RLU and 5.22E+04 RLU and the RLU (CqsS; agonist 48.8281 nM) was 1.20E+05 RLU and 1.71E+05 RLU and 1.56E+05 RLU. For the same compound, the RLU (CqsS; agonist 195.312 nM) was 4.96E+06 RLU and 5.24E+06 RLU and 3.77E+06 RLU, the RLU (CqsS; agonist 781.25 nM) was 5.10E+07 RLU and 6.40E+07 RLU and 5.48E+07 RLU and the RLU (CqsS; agonist 3125 nM) was 1.12E+08 RLU and 1.35E+08 RLU and 1.31E+08 RLU. For the same compound, the RLU (CqsS; agonist 12500 nM) was 1.34E+08 RLU and 1.62E+08 RLU and 1.58E+08 RLU, the RLU (CqsS; agonist 50000 nM) was 1.28E+08 RLU and 1.53E+08 RLU and 1.57E+08 RLU and the “% Total Phosphorylation” value (CqsS D618N; agonist 0.32 uM) was 95.2512% and 79.8407% and 88.8244% and 85.3997% and 90.9887%. The “% Total Phosphorylation” value (CqsS D618N; agonist 0.64 uM) was 113.145% and 87.5268% and 103.834% and 64.446% and 85.0733% and 67.8245%, the “% Total Phosphorylation” value (CqsS D618N; agonist 1.28 uM) was 54.1919% and 72.6606% and 66.4662% and 63.8968% and 70.5235% and 55.5883% and the “% Total Phosphorylation” value (CqsS D618N; agonist 6.4 uM) was 11.8696% and 10.1556% and 13.3867% and 14.118% and 13.0644% and 14.5467%. For the same compound, the “% Total Phosphorylation” value (CqsS D618N; agonist 8 uM) was 8.344% and 11.4086% and 9.0715% and 10.6327% and 12.5012% and 11.7307%, the “% Total Phosphorylation” value (CqsS D618N; agonist 10 uM) was 12.437% and 6.165% and 12.0698% and 9.199% and 10.7397% and 9.533% and the “% Total Phosphorylation” value (CqsS D618N; agonist 15 uM) was 6.329% and 4.395% and 5.101% and 4.035% and 5.504% and 5.125%. For the same compound, the Qrr4-GFP/OD600 (CqsS F162A) was 18299880 and 17516110 and 17110990, the Qrr4-GFP/OD600 (CqsS F166L; Treatment 1uM, CqsS mutant F166L) was 7778886 and 7289924 and 6896372 and the “response (Qrr4-GFP production)” value (CqsS F166L; compounds at 1 μM) was “nearly impervious”.
